The numbers were not newly measured in patent publication US9206237B2, “Cystine knot peptides that bind alpha-V-beta-6 integrin” (priority 2011, dated 2015), which cites them from elsewhere.

For data set [1], the target named is T1, alpha-v-beta-6 (Homo sapiens, UniProt P06756+P18564). The settings on record: read-out: IC50, cell adhesion assays.
Target sequence in this assay (P06756 31-1048): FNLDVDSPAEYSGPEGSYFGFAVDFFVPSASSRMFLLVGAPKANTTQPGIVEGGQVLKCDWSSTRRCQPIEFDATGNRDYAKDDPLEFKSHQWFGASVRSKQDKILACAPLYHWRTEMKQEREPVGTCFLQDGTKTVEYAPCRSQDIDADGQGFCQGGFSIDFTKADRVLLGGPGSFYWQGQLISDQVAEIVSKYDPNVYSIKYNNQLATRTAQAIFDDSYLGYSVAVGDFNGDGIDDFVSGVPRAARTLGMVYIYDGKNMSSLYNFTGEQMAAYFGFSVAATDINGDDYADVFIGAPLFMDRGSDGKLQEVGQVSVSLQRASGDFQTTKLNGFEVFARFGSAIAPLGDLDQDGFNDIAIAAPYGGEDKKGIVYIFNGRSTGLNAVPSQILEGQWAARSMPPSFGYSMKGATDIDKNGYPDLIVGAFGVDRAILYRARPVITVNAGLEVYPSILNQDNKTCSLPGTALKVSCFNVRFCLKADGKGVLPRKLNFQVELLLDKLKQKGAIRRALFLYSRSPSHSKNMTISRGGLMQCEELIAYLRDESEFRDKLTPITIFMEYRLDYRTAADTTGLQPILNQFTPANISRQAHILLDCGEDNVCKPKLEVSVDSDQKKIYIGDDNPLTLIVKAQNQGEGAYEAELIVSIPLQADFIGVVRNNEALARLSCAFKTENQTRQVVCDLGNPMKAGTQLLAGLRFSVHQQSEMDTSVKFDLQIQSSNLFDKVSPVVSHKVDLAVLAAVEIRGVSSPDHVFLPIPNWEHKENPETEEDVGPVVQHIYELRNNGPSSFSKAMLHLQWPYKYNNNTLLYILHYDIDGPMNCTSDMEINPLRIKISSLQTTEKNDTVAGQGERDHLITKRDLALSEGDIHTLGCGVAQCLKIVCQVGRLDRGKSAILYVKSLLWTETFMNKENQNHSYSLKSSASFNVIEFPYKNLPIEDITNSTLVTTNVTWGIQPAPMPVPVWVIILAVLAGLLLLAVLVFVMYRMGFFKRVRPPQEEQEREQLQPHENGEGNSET
Target sequence in this assay (P18564 22-788): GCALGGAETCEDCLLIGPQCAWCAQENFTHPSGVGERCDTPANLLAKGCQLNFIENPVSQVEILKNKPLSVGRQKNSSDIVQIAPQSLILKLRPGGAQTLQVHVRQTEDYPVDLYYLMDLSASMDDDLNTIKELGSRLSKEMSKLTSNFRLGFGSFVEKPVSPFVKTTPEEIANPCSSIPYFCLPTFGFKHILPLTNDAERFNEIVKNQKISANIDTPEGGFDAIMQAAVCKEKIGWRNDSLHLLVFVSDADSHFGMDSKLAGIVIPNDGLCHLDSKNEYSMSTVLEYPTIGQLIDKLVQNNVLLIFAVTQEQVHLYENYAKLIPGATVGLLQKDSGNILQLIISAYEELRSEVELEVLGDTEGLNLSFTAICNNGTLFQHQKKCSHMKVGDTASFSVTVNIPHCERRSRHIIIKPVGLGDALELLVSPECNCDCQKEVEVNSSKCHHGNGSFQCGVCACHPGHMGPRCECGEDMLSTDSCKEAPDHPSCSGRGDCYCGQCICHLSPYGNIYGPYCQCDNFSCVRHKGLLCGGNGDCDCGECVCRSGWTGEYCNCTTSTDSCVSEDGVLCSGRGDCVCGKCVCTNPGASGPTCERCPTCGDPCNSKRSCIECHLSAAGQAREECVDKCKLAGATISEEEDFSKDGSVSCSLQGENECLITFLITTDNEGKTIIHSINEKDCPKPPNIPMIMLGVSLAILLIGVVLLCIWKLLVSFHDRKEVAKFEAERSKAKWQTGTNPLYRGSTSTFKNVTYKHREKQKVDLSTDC
Data set [2] addresses T1, alpha-v-beta-6. The following applies: inhibition of RGD-dependent ligand binding; read-out: IC50, isolated receptor assays.
Target sequence in this assay (P06756 31-992 limits assumed): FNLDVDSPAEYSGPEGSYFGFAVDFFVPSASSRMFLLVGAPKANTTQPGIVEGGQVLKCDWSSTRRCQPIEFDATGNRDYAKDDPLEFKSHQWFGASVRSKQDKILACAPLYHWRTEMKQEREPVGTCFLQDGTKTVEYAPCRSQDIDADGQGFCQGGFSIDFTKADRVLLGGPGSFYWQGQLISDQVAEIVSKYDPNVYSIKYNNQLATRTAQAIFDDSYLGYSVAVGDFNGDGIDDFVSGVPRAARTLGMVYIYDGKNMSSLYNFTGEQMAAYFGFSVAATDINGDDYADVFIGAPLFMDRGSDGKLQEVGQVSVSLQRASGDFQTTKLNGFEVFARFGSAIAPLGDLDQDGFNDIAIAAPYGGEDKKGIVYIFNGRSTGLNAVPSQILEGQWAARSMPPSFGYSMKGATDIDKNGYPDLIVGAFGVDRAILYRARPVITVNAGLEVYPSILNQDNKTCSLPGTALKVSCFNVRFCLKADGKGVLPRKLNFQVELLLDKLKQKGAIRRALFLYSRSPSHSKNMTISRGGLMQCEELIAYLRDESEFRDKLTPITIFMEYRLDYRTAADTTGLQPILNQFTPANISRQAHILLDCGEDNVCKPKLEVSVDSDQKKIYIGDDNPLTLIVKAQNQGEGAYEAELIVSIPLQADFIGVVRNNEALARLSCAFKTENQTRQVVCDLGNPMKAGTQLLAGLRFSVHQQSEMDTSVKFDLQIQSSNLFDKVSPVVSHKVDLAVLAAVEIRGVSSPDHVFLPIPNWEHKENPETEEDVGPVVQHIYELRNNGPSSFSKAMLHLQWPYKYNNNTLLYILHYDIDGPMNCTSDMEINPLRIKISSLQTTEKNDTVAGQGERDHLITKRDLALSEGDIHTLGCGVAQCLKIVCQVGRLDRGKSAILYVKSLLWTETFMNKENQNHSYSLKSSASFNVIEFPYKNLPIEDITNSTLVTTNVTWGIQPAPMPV
Target sequence in this assay (P18564 22-709 limits assumed): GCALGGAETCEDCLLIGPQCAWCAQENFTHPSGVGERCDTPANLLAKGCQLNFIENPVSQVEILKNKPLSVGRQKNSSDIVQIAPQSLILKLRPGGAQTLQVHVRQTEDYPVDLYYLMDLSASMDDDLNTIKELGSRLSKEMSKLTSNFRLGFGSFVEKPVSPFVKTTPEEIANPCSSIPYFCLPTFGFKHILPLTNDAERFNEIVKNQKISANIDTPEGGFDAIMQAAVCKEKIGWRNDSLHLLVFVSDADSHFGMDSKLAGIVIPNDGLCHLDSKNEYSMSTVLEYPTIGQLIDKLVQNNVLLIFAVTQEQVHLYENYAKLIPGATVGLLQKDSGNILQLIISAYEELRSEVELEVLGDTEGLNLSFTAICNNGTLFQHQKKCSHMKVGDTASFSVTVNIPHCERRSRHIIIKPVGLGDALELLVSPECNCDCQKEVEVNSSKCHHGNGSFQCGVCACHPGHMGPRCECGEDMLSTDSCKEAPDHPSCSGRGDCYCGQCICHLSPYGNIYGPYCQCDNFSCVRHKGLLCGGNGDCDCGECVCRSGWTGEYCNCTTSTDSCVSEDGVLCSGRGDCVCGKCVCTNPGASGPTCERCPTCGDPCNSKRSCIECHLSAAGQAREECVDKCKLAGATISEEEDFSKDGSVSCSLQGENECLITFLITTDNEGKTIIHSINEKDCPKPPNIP

Read-outs that look alike come from different tables or passages of the source.

As to RTDLDSLRTYTL, the concentration for half-maximal inhibition (IC50) in data set [1] is 50 µM; in data set [2], 0.02 µM.
